Data on 20 compounds can be found in patent publication US9169243B2, “Apoptosis signal-regulating kinase inhibitors” (Gilead Sciences, Inc., priority 2013, dated 2015).

Chain of recombinant human ASK1 kinase (Q99683 whole entry): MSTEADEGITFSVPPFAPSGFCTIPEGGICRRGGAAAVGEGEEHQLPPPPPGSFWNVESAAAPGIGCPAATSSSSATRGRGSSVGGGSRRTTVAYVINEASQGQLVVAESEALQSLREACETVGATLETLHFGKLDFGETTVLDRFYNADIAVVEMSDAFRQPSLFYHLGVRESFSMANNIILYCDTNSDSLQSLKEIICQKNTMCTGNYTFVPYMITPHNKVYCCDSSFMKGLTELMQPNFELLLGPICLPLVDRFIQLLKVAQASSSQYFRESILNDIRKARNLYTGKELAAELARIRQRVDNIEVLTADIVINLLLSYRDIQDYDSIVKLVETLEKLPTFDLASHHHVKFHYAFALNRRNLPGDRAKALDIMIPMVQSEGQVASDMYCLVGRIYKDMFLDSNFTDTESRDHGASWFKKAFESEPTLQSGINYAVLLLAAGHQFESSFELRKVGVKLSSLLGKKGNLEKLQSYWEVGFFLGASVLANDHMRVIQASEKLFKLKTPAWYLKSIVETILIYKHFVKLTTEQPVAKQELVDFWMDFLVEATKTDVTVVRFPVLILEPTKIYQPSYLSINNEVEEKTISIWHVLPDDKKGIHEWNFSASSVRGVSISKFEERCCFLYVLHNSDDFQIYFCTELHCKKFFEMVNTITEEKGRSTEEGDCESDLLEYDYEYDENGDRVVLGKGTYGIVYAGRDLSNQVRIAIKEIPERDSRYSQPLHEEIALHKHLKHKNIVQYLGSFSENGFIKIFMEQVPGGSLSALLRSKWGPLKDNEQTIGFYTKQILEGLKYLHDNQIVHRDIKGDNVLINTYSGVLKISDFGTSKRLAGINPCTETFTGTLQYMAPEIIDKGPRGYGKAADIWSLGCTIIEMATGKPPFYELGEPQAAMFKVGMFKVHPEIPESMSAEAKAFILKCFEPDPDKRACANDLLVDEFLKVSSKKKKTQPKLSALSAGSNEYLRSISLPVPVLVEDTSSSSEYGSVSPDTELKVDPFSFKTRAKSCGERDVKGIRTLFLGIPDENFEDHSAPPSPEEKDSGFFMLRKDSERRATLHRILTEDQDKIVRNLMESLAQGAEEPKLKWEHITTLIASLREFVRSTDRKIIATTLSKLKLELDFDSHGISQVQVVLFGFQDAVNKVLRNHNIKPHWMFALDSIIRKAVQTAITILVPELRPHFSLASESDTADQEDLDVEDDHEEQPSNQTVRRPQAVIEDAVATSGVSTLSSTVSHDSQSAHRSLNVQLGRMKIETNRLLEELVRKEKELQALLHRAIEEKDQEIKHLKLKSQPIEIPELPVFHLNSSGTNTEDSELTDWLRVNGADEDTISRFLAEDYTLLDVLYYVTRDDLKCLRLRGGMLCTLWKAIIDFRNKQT

In this assay the target is recombinant human ASK1 kinase (Homo sapiens (Human), UniProt Q99683). Nature of the assay: TR-FRET ASK1 (Apoptosis Signal-Regulating Kinase 1) kinase assay. The format is biochemical. As to conditions: TR-FRET/HTRF, 4 nM ASK1, 1 μM STK3 peptide substrate, 100 μM ATP, 3 hr; average of quadruplicate determination. From the text:
I. TR-FRET ASK1 (Apoptosis Signal-Regulating Kinase 1) Kinase Assay
To evaluate the inhibitory activity of compounds of the invention against ASK1 (Apoptosis Signal-regulating Kinase 1) kinase, its activity was examined using a TR-FRET ASK1 kinase assay which determined the amount of phosphate transferred to a peptide substrate from ATP.
Dephosphorylated recombinant human ASK1 kinase was from Gilead Sciences. Small molecule kinase inhibitor staurosporine (Catalogue #S6942) and dithiothreitol (DTT, catalogue #43815-5G) were obtained from Sigma Chemicals (St. Louis, Mo.). ATP (catalogue #7724) was from Affymetrix (Santa Clara, Calif.) and test compounds were from Gilead Sciences. HTRF KinEASE™-STK S3 kit was obtained from Cisbio (Bedford, Mass.). All other reagents were of the highest grade commercially available.
The assay measures the phosphorylation level of a biotinylated peptide substrate by the ASK1 kinase using HTRF detection. This is a competitive, time-resolved fluorescence resonance energy transfer (TR-FRET) immunoassay, based on HTRF® KinEASE™-STK manual from Cisbio. Test compound, 1 μM STK3 peptide substrate, 4 nM of ASK1 kinase were incubated with 10 mM MOP buffer, pH. 7.0 containing 10 mM Mg-acetate, 0.025% NP-40, 1 mM DTT, 0.05% BSA and 1.5% glycerol for 30 minutes then 100 μM ATP was added to start the kinase reaction and incubated for 3 hr. Peptide antibody labeled with 1×Eu^3+ Cryptate buffer containing 10 mM EDTA and 125 nM Streptavidin XL665 were added to stop the reaction and phosphorylated peptide substrate was detected using Envision 2103 Multilabeled reader from PerkinElmer. The fluorescence was measured at 615 nm (Cryptate) and 665 nm (XL665) and a ratio of 665 nm/615 nm was calculated for each well. The resulting TR-FRET level (a ratio of 665 nm/615 nm) was proportional to the phosphorylation level. Under these assay conditions, the degree of phosphorylation of peptide substrate was linear with time and concentration for the enzyme. The assay system yielded consistent results with regard to Km and specific activities for the enzyme. For inhibition experiments (IC50 values), activities were performed with constant concentrations of ATP, peptide and several fixed concentrations of inhibitors. Staurosporine, the nonselective kinase inhibitor, was used as the positive control. All enzyme activity data are reported as an average of quadruplicate determination.
The IC50 values were calculated following equation: y=Range/{1+(x/IC50)^s}+Background where x and y represent the concentration of inhibitors and enzyme activity, respectively. Enzyme activity is expressed as the amount of Phosphate incorporated into substrate peptide from ATP. Range is the maximum y range (no inhibitor, DMSO control) and s is a slope factor.
(In general: Time-resolved FRET reads energy transfer from a long-lived donor to a nearby acceptor.)
One may read the IC50 as the concentration needed to halve the response being measured. On to `O=C(Nc1csc(-c2nncn2C2CC2)n1)c1cc(-n2cnc(C3CC3)c2)c(N2CC3CC3C2)cn1` (centres unmarked) [Compound 17, 5-(3-azabicyclo[3.1.0]hexan-3-yl)-4-(4-cyclopropylimidazol-1-yl)-N-[2-(4-cyclopropyl-1,2,4-triazol-3-yl)-3,3-thiazol-4-yl]pyridine-2-carboxamide], for which the IC50 was found to be 1.1 nM.
Consider `CNC(=O)C1CCN(c2cnc(C(=O)Nc3csc(-c4nncn4[C@@H](C)C(F)(F)F)n3)cc2-n2cnc(C3CC3)c2)CC1` [Compound 31, (S)-4-(4-cyclopropyl-1H-imidazol-1-yl)-5-(4-(methylcarbamoyl)piperidin-1-yl)-N-(2-(4-(1,1,1-trifluoropropan-2-yl)-4H-1,2,4-triazol-3-yl)thiazol-4-yl)picolinamide], for which the IC50 was found to be 2.3 nM.
Turning to `C[C@H](n1cnnc1-c1nc(NC(=O)c2cc(-n3cnc(C4CC4)c3)c(N3CC4(CCOCC4)C3)cn2)cs1)C(F)(F)F` [Compound 45, (S)-4-(4-cyclopropyl-1H-imidazol-1-yl)-5-(7-oxa-2-azaspiro[3.5]nonan-2-yl)-N-(2-(4-(1,1,1-trifluoropropan-2-yl)-4H-1,2,4-triazol-3-yl)thiazol-4-yl)picolinamide], the IC50 was determined as 2.6 nM.
`C[C@H](n1cnnc1-c1nc(NC(=O)c2cc(-n3cnc(C4CC4)c3)c(N3CC(N4CCOCC4)C3)cn2)cs1)C(F)(F)F` [Compound 41, (S)-4-(4-cyclopropyl-1H-imidazol-1-yl)-5-(3-morpholinoazetidin-1-yl)-N-(2-(4-(1,1,1-trifluoropropan-2-yl)-4H-1,2,4-triazol-3-yl)thiazol-4-yl)picolinamide]: the IC50 worked out at 1.9 nM.
For `C[C@H](n1cnnc1-c1nc(NC(=O)c2cc(-n3cnc(C4CC4)c3)c(N3CCN4C(=O)OCC4C3)cn2)cs1)C(F)(F)F` (stereo partly drawn) [Compound 39, 4-(4-cyclopropyl-1H-imidazol-1-yl)-5-(3-oxotetrahydro-1H-oxazolo[3,4-a]pyrazin-7(3H)-yl)-N-(2-(4-((S)-1,1,1-trifluoropropan-2-yl)-4H-1,2,4-triazol-3-yl)thiazol-4-yl)picolinamide], the IC50 was found to be 2.3 nM.
In the case of `CNC(=O)C1CCN(c2cnc(C(=O)Nc3csc(-c4nncn4C4CC4)n3)cc2-n2cnc(C3CC3)c2)CC1` [Compound 11, 4-(4-cyclopropylimidazol-1-yl)-N-[2-(4-cyclopropyl-1,2,4-triazol-3-yl)-1,3-thiazol-4-yl]-5-[4-(methylcarbamoyl)piperidin-1-yl]pyridine-2-carboxamide], the IC50 is 0.4 nM.
`C[C@H](n1cnnc1-c1nc(NC(=O)c2cc(-n3cnc(C4CC4)c3)c(N3CCN4CCCC4C3)cn2)cs1)C(F)(F)F` (stereo partly drawn) [Compound 37, 4-(4-cyclopropyl-1H-imidazol-1-yl)-5-(hexahydropyrrolo[1,2-a]pyrazin-2(1H)-yl)-N-(2-(4-((S)-1,1,1-trifluoropropan-2-yl)-4H-1,2,4-triazol-3-yl)thiazol-4-yl)picolinamide]: the IC50 is 1.8 nM.
Regarding `C[C@H](n1cnnc1-c1nc(NC(=O)c2cc(-n3cnc(C4CC4)c3)c(N3CC4CC4C3)cn2)cs1)C(F)(F)F` (stereo partly drawn) [Compound 40, 5-(3-azabicyclo[3.1.0]hexan-3-yl)-4-(4-cyclopropyl-1H-imidazol-1-yl)-N-(2-(4-((S)-1,1,1-trifluoropropan-2-yl)-4H-1,2,4-triazol-3-yl)thiazol-4-yl)picolinamide], the half-maximal inhibitory concentration (IC50) was found to be 2.2 nM.
For `C[C@H](n1cnnc1-c1nc(NC(=O)c2cc(-n3cnc(C4CC4)c3)c(N3CCN(C4CC4)CC3)cn2)cs1)C(F)(F)F` [Compound 42, (S)-4-(4-cyclopropyl-1H-imidazol-1-yl)-5-(4-cyclopropylpiperazin-1-yl)-N-(2-(4-(1,1,1-trifluoropropan-2-yl)-4H-1,2,4-triazol-3-yl)thiazol-4-yl)picolinamide], the IC50 amounted to 1.8 nM.
Take `COC1(C)CN(c2cnc(C(=O)Nc3csc(-c4nncn4C4CC4)n3)cc2-n2cnc(C3CC3)c2)C1` [Compound 4, 4-(4-cyclopropylimidazol-1-yl)-N-[2-(4-cyclopropyl-1,2,4-triazol-3-yl)-1,3-thiazol-4-yl]-5-(3-methoxy-3-methylazetidin-1-yl)pyridine-2-carboxamide]: the 50% inhibitory concentration (IC50) turned out to be 1.8 nM.
`O=C(Nc1csc(-c2nncn2C2CC2)n1)c1cc(-n2cnc(C3CC3)c2)c(N2CCC(C(F)(F)F)CC2)cn1` [Compound 7, 4-(4-cyclopropylimidazol-1-yl)-N-[2-(4-cyclopropyl-1,2,4-triazol-3-yl)-1,3-thiazol-4-yl]-5-[4-(trifluoromethyl)piperidin-1-yl]pyridine-2-carboxamide]: the IC50 was found to be 3.2 nM.
The same measure for `C[C@H](n1cnnc1-c1nc(NC(=O)c2cc(-n3cnc(C4CC4)c3)c(N3CCC(F)(F)C3)cn2)cs1)C(F)(F)F` [Compound 27, (S)-4-(4-cyclopropyl-1H-imidazol-1-yl)-5-(3,3-difluoropyrrolidin-1-yl)-N-(2-(4-(1,1,1-trifluoropropan-2-yl)-4H-1,2,4-triazol-3-yl)thiazol-4-yl)picolinamide]: 2.1 nM; for `COC1CCN(c2cnc(C(=O)Nc3csc(-c4nncn4C4CC4)n3)cc2-n2cnc(C3CC3)c2)CC1` [Compound 10, 4-(4-cyclopropylimidazol-1-yl)-N-[2-(4-cyclopropyl-1,2,4-triazol-3-yl)-1,3-thiazol-4-yl]-5-(4-methoxypiperidin-1-yl)pyridine-2-carboxamide]: 3.2 nM; for `COCC1CN(c2cnc(C(=O)Nc3csc(-c4nncn4[C@@H](C)C(F)(F)F)n3)cc2-n2cnc(C3CC3)c2)C1` [Compound 23, (S)-4-(4-cyclopropyl-1H-imidazol-1-yl)-5-(3-(methoxymethyl)azetidin-1-yl)-N-(2-(4-(1,1,1-trifluoropropan-2-yl)-4H-1,2,4-triazol-3-yl)thiazol-4-yl)picolinamide]: 2 nM.
For `O=C(Nc1csc(-c2nncn2C2CC2)n1)c1cc(-n2cnc(C3CC3)c2)c(N2CCN(CC(F)(F)F)CC2)cn1` [Compound 13, 4-(4-cyclopropylimidazol-1-yl)-N-[2-(4-cyclopropyl-1,2,4-triazol-3-yl)-1,3-thiazol-4-yl]-5-[4-(2,2,2-trifluoroethyl)piperazin-1-yl]pyridine-2-carboxamide] the value was 2.9 nM; for `O=C(Nc1csc(-c2nncn2C2CC2)n1)c1cc(-n2cnc(C3CC3)c2)c(N2CC(N3CCOCC3)C2)cn1` [Compound 18, 4-(4-cyclopropylimidazol-1-yl)-N-[2-(4-cyclopropyl-1,2,4-triazol-3-yl)-1,3-thiazol-4-yl]-5-(3-morpholin-4-ylazetidin-1-yl)pyridine-2-carboxamide], 2.3 nM; for `COC1CCN(c2cnc(C(=O)Nc3csc(-c4nncn4C4CC4)n3)cc2-n2cnc(C3CC3)c2)C1` (centres unmarked) [Compound 6, 4-(4-cyclopropylimidazol-1-yl)-N-[2-(4-cyclopropyl-1,2,4-triazol-3-yl)-1,3-thiazol-4-yl]-5-(3-methoxypyrrolidin-1-yl)pyridine-2-carboxamide], 2.8 nM.
As to `COC1(C)CN(c2cnc(C(=O)Nc3csc(-c4nncn4[C@@H](C)C(F)(F)F)n3)cc2-n2cnc(C3CC3)c2)C1` [Compound 25, (S)-4-(4-cyclopropyl-1H-imidazol-1-yl)-5-(3-methoxy-3-methylazetidin-1-yl)-N-(2-(4-(1,1,1-trifluoropropan-2-yl)-4H-1,2,4-triazol-3-yl)thiazol-4-yl)picolinamide], the IC50 was 2 nM.
As for `O=C(Nc1csc(-c2nncn2C2CC2)n1)c1cc(-n2cnc(C3CC3)c2)c(N2CCN(C3CC3)CC2)cn1` [Compound 19, 4-(4-cyclopropylimidazol-1-yl)-5-(4-cyclopropylpiperazin-1-yl)-N-[2-(4-cyclopropyl-1,2,4-triazol-3-yl)-1,3-thiazol-4-yl]pyridine-2-carboxamide], the half-maximal inhibitory concentration (IC50) worked out at 2.8 nM.
For the compound `C[C@H](n1cnnc1-c1nc(NC(=O)c2cc(-n3cnc(C4CC4)c3)c(N3CC4CN(C)CC4C3)cn2)cs1)C(F)(F)F` (stereo partly drawn) [Compound 38, 4-(4-cyclopropyl-1H-imidazol-1-yl)-5-(5-methylhexahydropyrrolo[3,4-c]pyrrol-2(1H)-yl)-N-(2-(4-((S)-1,1,1-trifluoropropan-2-yl)-4H-1,2,4-triazol-3-yl)thiazol-4-yl)picolinamide], the IC50 worked out at 2.4 nM.
